“Also recorded” adds a separate entry of the source. Structures can show the parent of a compound that is named as a salt. Where two headings read alike, the source gives them in different places.
How the values were obtained:
C. difficile spores [1] = assay type: cell-based, Clostridium difficile
C. difficile spores [2] = assay type: cell-based, Clostridium difficile; remark: listed apart in the source
vegetative C. difficile = assay type: cell-based, Clostridium difficile
C. perfringens SM101 = assay type: cell-based, Clostridium perfringens
[3] = in vivo; cited from earlier work
[4] = rat, in vivo; cited from earlier work
C. difficile spores [5] = assay: Inhibition of taurocholate-induced C. difficile spore germination, Ki from Lineweaver-Burk plot; assay type: cell-based, Clostridium difficile; conditions: for Inhibits Germination?: BHIS with 2-50 mM taurocholate plus inhibitor, OD600; for Ki: binding constant of inhibitor for the spore, competition with taurocholate
C. difficile spores [6] = tested on: C. difficile spores

C[C@H](CCC(=O)NCC(=O)O)[C@H]1CC[C@H]2[C@@H]3[C@H](O)C[C@@H]4C[C@H](O)CC[C@]4(C)[C@H]3C[C@H](O)[C@]12C [GA, glycocholate]
germination (decrease in optical density) in BHIS (C. difficile spores [1]): did not result in any significant decrease in the optical density | colony formation by spores, in words (C. difficile spores [2]): stimulated efficient colony formation | growth of vegetative C. difficile (vegetative C. difficile): able to grow | growth of vegetative C. perfringens (C. perfringens SM101; BHIS containing 0.1% bile salt): able to grow, however, to wild-type levels

C[C@H](CCC(=O)N(C)CC(=O)O)[C@H]1CC[C@H]2[C@@H]3[C@H](O)C[C@@H]4C[C@H](O)CC[C@]4(C)[C@H]3C[C@H](O)[C@]12C [cholylsarcosine]
resistance to deconjugation [3]: resistant to deconjugation

C[C@H](CCC(=O)O)[C@H]1CC[C@H]2[C@@H]3[C@H](O)C[C@@H]4C[C@H](O)CC[C@]4(C)[C@H]3C[C@H](O)[C@]12C [CA, cholate]
germination (decrease in optical density) in BHIS (C. difficile spores [1]): did not result in any significant decrease in the optical density | colony formation by spores, in words (C. difficile spores [2]): stimulated efficient colony formation | growth of vegetative C. difficile (vegetative C. difficile): able to grow | growth of vegetative C. perfringens (C. perfringens SM101): able to grow, however, to wild-type levels

C[C@H](CCC(=O)NCCS(=O)(=O)O)[C@H]1CC[C@H]2[C@@H]3[C@@H](O)C[C@@H]4C[C@H](O)CC[C@]4(C)[C@H]3CC[C@]12C [tauroursodeoxycholate]
deconjugation [4]: 100%

CC(CCC(=O)O)C1CCC2C3CC(=O)C4CC(O)CCC4(C)C3CCC12C (stereo not shown) [6-ketolithocholate]
Inhibits Germination? (C. difficile spores [5]): Yes | Ki (C. difficile spores [5]): 200 µM

C[C@H](CCC(=O)O)[C@H]1CC[C@H]2[C@@H]3[C@H](O)C[C@@H]4C[C@H](O)CC[C@]4(C)[C@H]3CC[C@]12C [CDCA, chenodeoxycholate]
colony formation after transient exposure, in words (C. difficile spores [6]): did not induce colony formation | inhibition of colony formation in response to cholate (C. difficile spores [6]): inhibited colony formation | inhibition of colony formation in response to taurocholate (C. difficile spores [6]): inhibited colony formation | growth of vegetative C. difficile (vegetative C. difficile): unable to grow; also recorded: inhibited the growth | inhibition of vegetative growth of C. difficile, general statement (vegetative C. difficile): capable of inhibiting the vegetative growth | growth of vegetative C. perfringens (C. perfringens SM101): unable to grow; also recorded: inhibited the growth

COC(=O)CC[C@@H](C)[C@H]1CC[C@H]2[C@@H]3[C@H](OC(C)=O)C[C@@H]4C[C@H](OC(C)=O)CC[C@]4(C)[C@H]3CC[C@]12C [5β-cholanic acid-3α,7α-diol diacetate methyl ester]
affinity for C. difficile spores relative to chenodeoxycholate (C. difficile spores [5]): 7-8 times | potency as inhibitor of spore germination relative to chenodeoxycholate (C. difficile spores [5]): approximately ten times more potent | Inhibits Germination? (C. difficile spores [5]): Yes | Ki (C. difficile spores [5]): 40 µM

C[C@H](CCC(=O)NCCS(=O)(=O)O)[C@H]1CC[C@H]2[C@@H]3[C@H](O)C[C@@H]4C[C@H](O)CC[C@]4(C)[C@H]3CC[C@]12C [Taurochenodeoxycholate, 5β-cholanic acid-3α,7α-diol n-(2-sulphoethyl)-amide sodium salt]
Inhibits Germination? (C. difficile spores [5]; listed as taurochenodeoxycholate, sodium salt): neither 5β-cholanic acid 3α-ol-acetate nor taurochenodeoxycholate was observed to inhibit | Inhibits Germination? (C. difficile spores [5]; sodium salt): No

CC(=O)O[C@@H]1CC[C@@]2(C)[C@H](CC[C@@H]3[C@@H]2CC[C@]2(C)[C@@H]([C@H](C)CCC(=O)O)CC[C@@H]32)C1 [5β-cholanic acid 3α-ol-acetate]
Inhibits Germination? (C. difficile spores [5]): No

NCC(=O)O [glycine]
cogermination in buffer (OD600) (C. difficile spores [1]): germinated in the presence of taurocholate but not in its absence | germination (optical density), glycine plus taurocholate (C. difficile spores [1]): the efficiency of germination was enhanced | germination (optical density), single agent (C. difficile spores [1]): a small decrease in the optical density

COC(=O)CC[C@@H](C)[C@H]1CC[C@H]2[C@@H]3[C@H](O)C[C@@H]4C[C@H](O)CC[C@]4(C)[C@H]3CC[C@]12C [5β-cholanic acid 3α,7α diol methyl ester, 5β-cholanic acid-3α,7α-diol methyl ester]
Inhibits Germination? (C. difficile spores [5]): Yes | Ki (C. difficile spores [5]): 22 µM

COC(=O)CC[C@@H](C)[C@H]1CC[C@H]2[C@@H]3C[C@@H](O)[C@@H]4C[C@H](O)CC[C@]4(C)[C@H]3CC[C@]12C [5β-cholanic acid 3α,6β diol methyl ester]
Inhibits Germination? (C. difficile spores [5]): Yes | Ki (C. difficile spores [5]): 48 µM

CCN(CCS(=O)(=O)O)C(=O)CC[C@@H](C)[C@H]1CC[C@H]2[C@@H]3[C@@H](O)C[C@@H]4C[C@H](O)CC[C@]4(C)[C@H]3CC[C@]12C [N-ethyl-tauroursodeoxycholate]
deconjugation [4]: 3.4+/−2.1%

C[C@H](CCC(=O)O)[C@H]1CC[C@H]2[C@@H]3[C@@H](O)C[C@@H]4C[C@H](O)CC[C@]4(C)[C@H]3CC[C@]12C [UA, ursodeoxycholate]
inhibition of vegetative growth of C. difficile, general statement (vegetative C. difficile): capable of inhibiting the vegetative growth

C[C@H](CCC(=O)O)[C@H]1CC[C@H]2[C@@H]3CC[C@@H]4C[C@H](O)CC[C@]4(C)[C@H]3C[C@H](O)[C@]12C [DCA, deoxycholate]
colony formation after transient exposure, in words (C. difficile spores [6]): indistinguishable from that of spores incubated with taurocholate | germination (decrease in optical density) in BHIS (C. difficile spores [1]): small drop in OD600 that after 60 min was not significantly more than the change in OD of spores in BHIS alone | growth of vegetative C. difficile (vegetative C. difficile): neither C. difficile nor C. perfringens grew | growth of vegetative C. perfringens (C. perfringens SM101): neither C. difficile nor C. perfringens grew

COC(=O)CC[C@@H](C)[C@H]1CC[C@H]2[C@@H]3[C@H](O)C[C@@H]4C[C@H](OC(C)=O)CC[C@]4(C)[C@H]3CC[C@]12C [5β-cholanic acid-3α,7α-diol 3-acetate methyl ester]
Inhibits Germination? (C. difficile spores [5]): Yes | Ki (C. difficile spores [5]): 40 µM

— US9340569B2, “Methods and compositions for inhibiting clostridium difficile spore germination and outgrowth” (priority 2008, dated 2016)
